Reference: the NIST ThermoML archive (doi:10.1016/j.fluid.2014.06.023)
Numbers after ± are expanded uncertainties.

Experiments:
[1] = refractive index (Na D-line) (dimensionless); details: 293.15 K; 101.33 kPa; Crystal; Standard Abbe refractometry
[2] = 293.15 K, 101.33 kPa, Pycnometric method

Structure (SMILES)	refractive index [1]	mass density ([2]; Crystal)	mass density ([2]; Liquid)
Cl.N [ammonium chloride (NH4Cl)]	1.638 ± 0.0008	1527 ± 12 kg/m3	–
CCCCO [butan-1-ol]	–	–	810 ± 12 kg/m3
